Data reported in US20170342110A1, “GLYCOPEPTIDES AND USES THEREOF” (JAWAHARLAL NEHRU CENTRE FOR ADVANCED SCIENTIFIC RESEARCH …, priority 2014, published 2017).
In brackets after ≈: the same amount, converted by molar mass. Like-named read-outs stand apart in the source and are kept apart here.

Tests used:
[1] = test system: Methicillin-resistant S. aureus (ATCC 33591); assay: Minimum inhibitory concentration, micro-dilution broth, MRSA; type: cell-based; details: Staphylococcus aureus, read-out: Minimum Inhibitory Concentration MRSA
Description: (§1) All test compounds were assayed in a micro-dilution broth format. Stock solutions were made by serially diluting the compounds using autoclaved millipore water or broth media. The antibacterial activity of the compounds was determined againstmethicillin-resistant S. aureus (MRSA), vancomycin-intermediate-resistant S. aureus (VISA), vancomycin-sensitive E. faecium (VSE), vancomycin-resistant E. faecalis and vancomycin-resistant E. faecium (VRE). Bacteria, to be tested, were grown for about 10 h in the suitable media, MSSA, MRSA and VISA were grown in […] (about 1 g of beef extract, about 2 g of yeast extract, about 5 g of peptone and about 5 g of NaCl in about 1000 mL of sterile distilled water (pH-7)). For solid media, about 5% agar was used along with above mentioned composition. VSE and VRE were cultured in Brain Heart Infusion broth (Himedia). The bacterial samples were freeze dried and stored at −80° C. About 5 μL of these stocks were added to about 3 mL of the nutrient broth or Brain Heart Infusion broth and the culture was grown for about 6 h at about 37° C. prior to the experiments. This 6 h grown culture gives about 10^9 cfu/mL and this was determined by spread plating method. The 6 h grown culture was diluted to give effective cell concentration of about 10^5 cfu/mL, which was then used for determining MIC. Compounds were serially diluted, in sterile water (2-fold dilution is employed) in a way that the working concentration was about 10 μM for MRSA, and VSE while for VRE and VISA it was about 100 μM. About 50 μL of these serial dilutions were added to the wells of 96 well plate followed by the addition of about 150 μL of bacterial solution. The plates were then incubated at about 37° C., 150 rpm in the incubator and O.D at 620 nm was recorded at an interval of about 24 h using TECAN (Infinite series, M200 pro) Plate Reader. Each concentration had triplicate values and the whole experiment was done at least twice and the MIC value was determined by taking the average of triplicate O. D. values for each concentration and plotting it against concentration. The data was then subjected to sigmoidal fitting.

[2] = test system: Vancomycin intermediate resistant S. aureus; assay: Minimum inhibitory concentration, micro-dilution broth, VISA; type: cell-based; details: Staphylococcus aureus, read-out: Minimum Inhibitory Concentration VISA
Description: as §1

[3] = test system: methicillin-resistant vancomycin intermediate S. aureus (MR-VISA); assay: Mouse neutropenic thigh infection model against MR-VISA; type: in vivo; details: neutropenic female CD-1 mice, 12 mg/kg intravenously, 24 h post first treatment
Description: In-vivo activity against methicillin-resistant vancomycin intermediate S. aureus (MR-VISA):
Mouse Neutropenic Thigh Infection Model:
About six-week-old, female CD-1 mice (weight, ˜19-24 g) were used for the experiments. The mice were rendered neutropenic (˜100 neutrophils/ml) by injecting two doses of cyclophosphamide intraperitoneally 4 days (150 mg/kg) and 1 day (100 mg/kg) before the infection experiment. 50 μL of […] concentration of the bacterial inoculum (MR-VISA) was injected into the thigh. One hour after inoculation, animals were treated intravenously with saline, vancomycin, linezolid and compound 14 at 12 mg/kg body weight. At 24 h post first treatment, cohorts of animals were euthanized (using ether) and the thighs were collected aseptically. […] The dilutions of the homogenate were plated onto agar plates, which were incubated overnight at 37° C. The bacterial titer was expressed as log10 CFU/g of thigh weight.

[4] = test system: Vancomycin-resistant E. faecium (ATCC 51559); assay: Minimum inhibitory concentration, micro-dilution broth, VREm; type: cell-based; details: for MIC: Enterococcus faecium, read-out: Minimum Inhibitory Concentration VREm
Description: as §1

[5] = test system: Vancomycin-resistant E. faecalis (VanA, ATCC 51575); assay: Minimum inhibitory concentration, micro-dilution broth, VREs; type: cell-based; details: Enterococcus faecalis, read-out: Minimum Inhibitory Concentration VREs
Description: as §1

[6] = MRSA ATCC 33591, O.D. 620 nm at 24 h
[7] = ATCC51559, E. faecium ATCC 51559, O.D. 620 nm at 24 h
[8] = ATCC51575, E. faecalis ATCC 51575, O.D. 620 nm at 24 h

Row | MIC [1, 6] [µM] | MIC ([2]; O.D. 620 nm at 24 h) [µM] | MIC [4, 7] [µM] | fold more active than vancomycin against VREm/VRE (MIC) ([4]; relative to vancomycin) [fold] | MIC [5, 8] [µM] | SMILES | reduction in bacterial count from the vehicle treated mice [3] [log10 CFU/g] | in-vivo antibacterial activity compared to vehicle treated mice (saline), in words [3] | MIC ([1]; 24 h) [µM] | MIC ([2]; 24 h) [µM] | MIC ([4]; ATCC51559, 24 h) [µM] | MIC ([5]; ATCC51575, 24 h) [µM]
1 | 0.09 | 0.1 | 0.09 | > 7500 | 1.36 | CCCCCCCC[n+]1ccc(CNC2(C)CC(OC3C(Oc4c5cc6cc4Oc4ccc(cc4Cl)C(O)C4NC(=O)[C@@H](NC(=O)[C@@H]6NC(=O)C(CC(N)=O)NC(=O)C(NC(=O)C(CC(C)C)NC)C(O)c6ccc(c(Cl)c6)O5)c5ccc(O)c(c5)-c5c(O)cc(O)cc5[C@@H](C(=O)NCCCNC(=O)C(O)C(O)C(O[C@H]5OC(CO)C(O)C(O)C5O)C(O)CO)NC4=O)OC(CO)C(O)C3O)OC(C)C2O)cc1 (some centres unmarked) [Compound 14] | ~6.0 |  |  |  |  | 
2 | 0.2 | 0.09 | 0.3 |  | 1.3 | CCCCCCCCCC[n+]1ccc(CNC2(C)CC(OC3C(Oc4c5cc6cc4Oc4ccc(cc4Cl)C(O)C4NC(=O)[C@@H](NC(=O)[C@@H]6NC(=O)C(CC(N)=O)NC(=O)C(NC(=O)C(CC(C)C)NC)C(O)c6ccc(c(Cl)c6)O5)c5ccc(O)c(c5)-c5c(O)cc(O)cc5[C@@H](C(=O)NCCCNC(=O)C(O)C(O)C(O[C@H]5OC(CO)C(O)C(O)C5O)C(O)CO)NC4=O)OC(CO)C(O)C3O)OC(C)C2O)cc1 (some centres unmarked) [Compound 15] |  |  |  |  |  | 
3 | 0.28 | 0.31 | 0.37 |  | 1.11 | CCCCCCCCCCCC[n+]1ccc(CNC2(C)CC(OC3C(Oc4c5cc6cc4Oc4ccc(cc4Cl)C(O)C4NC(=O)[C@@H](NC(=O)[C@@H]6NC(=O)C(CC(N)=O)NC(=O)C(NC(=O)C(CC(C)C)NC)C(O)c6ccc(c(Cl)c6)O5)c5ccc(O)c(c5)-c5c(O)cc(O)cc5[C@@H](C(=O)NCCCNC(=O)C(O)C(O)C(OC5OC(CO)C(O)C(O)C5O)C(O)CO)NC4=O)OC(CO)C(O)C3O)OC(C)C2O)cc1 (some centres unmarked) [Compound 16] |  |  |  |  |  | 

Second part, the compound before the results:

Row | SMILES | MIC [1, 6] [µM] | MIC ([2]; O.D. 620 nm at 24 h) [µM] | MIC [4, 7] [µM] | fold more active than vancomycin against VREm/VRE (MIC) ([4]; relative to vancomycin) [fold] | MIC [5, 8] [µM] | reduction in bacterial count from the vehicle treated mice [3] [log10 CFU/g] | in-vivo antibacterial activity compared to vehicle treated mice (saline), in words [3] | MIC ([1]; 24 h) [µM] | MIC ([2]; 24 h) [µM] | MIC ([4]; ATCC51559, 24 h) [µM] | MIC ([5]; ATCC51575, 24 h) [µM]
4 | CC(=O)NC[C@H]1CN(c2ccc(N3CCOCC3)c(F)c2)C(=O)O1 [linezolid] |  |  |  |  |  |  | minimal or no activity |  |  |  | 
5 | CNC(CC(C)C)C(=O)NC1C(=O)N[C@H](CC(N)=O)C(=O)N[C@H]2C(=O)N[C@H]3C(=O)NC(C(=O)N[C@@H](C(=O)O)c4cc(O)cc(O)c4-c4cc3ccc4O)C(O)c3ccc(c(Cl)c3)Oc3cc2cc(c3OC2OC(CO)C(O)C(O)C2OC2CC(C)(N)C(O)C(C)O2)Oc2ccc(cc2Cl)C1O (some centres unmarked) [Vancomycin, reference compound] |  |  |  |  |  |  | minimal or no activity | 0.78 (≈ 1.13 µg/mL) | 8 to 12 (≈ 11.6 to 17.4 µg/mL) | 750 (≈ 1090 µg/mL) | 250 (≈ 362 µg/mL)
